The source of these data is PMC10067855, “Sialidases and fucosidases of Akkermansia muciniphila are crucial for growth on mucin and nutrient sharing with mucus-associated gut bacteria” (Nature Communications, 2023).

One assay deals with T1, AmGH95A (Akkermansia muciniphila, UniProt B2UM81).
T1 construct: gene Amuc_0186; mature peptide lacking the signal peptide
T1 sequence (B2UM81 25-788): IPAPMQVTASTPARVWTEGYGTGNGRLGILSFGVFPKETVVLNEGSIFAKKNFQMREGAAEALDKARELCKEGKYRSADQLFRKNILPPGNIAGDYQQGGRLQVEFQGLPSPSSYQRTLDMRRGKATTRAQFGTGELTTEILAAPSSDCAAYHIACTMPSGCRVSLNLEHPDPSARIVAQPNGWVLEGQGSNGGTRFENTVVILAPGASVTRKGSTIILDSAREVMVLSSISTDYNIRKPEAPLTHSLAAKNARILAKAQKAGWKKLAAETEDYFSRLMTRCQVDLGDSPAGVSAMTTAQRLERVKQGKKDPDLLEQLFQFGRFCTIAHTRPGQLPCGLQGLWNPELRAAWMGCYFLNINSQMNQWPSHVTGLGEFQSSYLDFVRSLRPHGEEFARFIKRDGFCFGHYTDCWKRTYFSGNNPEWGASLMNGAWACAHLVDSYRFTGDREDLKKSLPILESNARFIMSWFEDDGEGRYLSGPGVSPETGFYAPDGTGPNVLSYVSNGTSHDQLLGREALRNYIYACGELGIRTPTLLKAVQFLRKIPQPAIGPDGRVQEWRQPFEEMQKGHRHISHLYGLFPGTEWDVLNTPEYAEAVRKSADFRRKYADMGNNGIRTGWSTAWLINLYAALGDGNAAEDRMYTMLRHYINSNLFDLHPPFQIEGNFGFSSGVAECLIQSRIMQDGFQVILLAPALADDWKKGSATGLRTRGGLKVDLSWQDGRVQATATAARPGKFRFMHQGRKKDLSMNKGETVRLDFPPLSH
Briefly: inhibition of pNPFuc hydrolysis, A405. It counts as biochemical.

A further assay concerns the target T2, AmGH95B (Akkermansia muciniphila, UniProt B2UR61).
T2 construct: gene Amuc_1120; mature peptide lacking the signal peptide
T2 sequence (B2UR61 23-796): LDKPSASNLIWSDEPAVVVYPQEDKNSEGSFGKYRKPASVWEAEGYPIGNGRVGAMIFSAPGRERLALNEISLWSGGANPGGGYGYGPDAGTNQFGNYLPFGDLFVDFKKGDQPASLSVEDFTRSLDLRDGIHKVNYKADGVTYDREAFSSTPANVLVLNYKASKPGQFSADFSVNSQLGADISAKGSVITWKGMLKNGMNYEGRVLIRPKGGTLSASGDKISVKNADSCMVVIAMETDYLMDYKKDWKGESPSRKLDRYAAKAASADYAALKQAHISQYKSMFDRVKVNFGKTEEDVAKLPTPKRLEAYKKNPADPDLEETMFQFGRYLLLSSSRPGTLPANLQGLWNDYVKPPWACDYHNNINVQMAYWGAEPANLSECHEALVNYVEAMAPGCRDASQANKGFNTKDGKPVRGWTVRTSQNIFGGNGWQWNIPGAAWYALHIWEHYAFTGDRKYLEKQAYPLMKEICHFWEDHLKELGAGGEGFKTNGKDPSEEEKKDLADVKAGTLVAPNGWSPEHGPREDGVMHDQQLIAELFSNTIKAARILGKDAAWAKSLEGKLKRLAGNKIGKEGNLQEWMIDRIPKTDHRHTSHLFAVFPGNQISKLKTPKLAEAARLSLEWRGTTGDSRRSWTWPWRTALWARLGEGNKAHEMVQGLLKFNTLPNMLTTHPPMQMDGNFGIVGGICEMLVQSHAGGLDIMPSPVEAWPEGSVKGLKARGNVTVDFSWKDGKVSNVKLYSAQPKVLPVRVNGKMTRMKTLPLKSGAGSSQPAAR
Briefly: inhibition of pNPFuc hydrolysis, A405. It counts as biochemical.

A word on the IC50: it is the concentration needed to halve the response being measured. With `C[C@@H]1NC[C@@H](O)[C@H](O)[C@@H]1O` [DFJ, 1-Deoxyfuconojirimycin], the half-inhibitory concentration (IC50) against AmGH95A and against AmGH95B was < 54 µM each time.
